{"source": "paper PMC6895180", "about": "(Nature Communications, 2019)", "key": {"[1]": {"system": "T. b. brucei Lister 427WT", "assay": "Drug susceptibility test (resazurin), Lister 427WT", "type": "cell-based, Trypanosoma brucei brucei", "conditions": "Trypanosoma brucei", "method": "(§1) Drug susceptibility tests with Lister 427WT, TbAT1-KO[48], B48[26] and ISMR1[27] were performed using an assay based on the viability indicator dye resazurin in 96-well plates, each well containing 2 × 10^4 cells. The plates were incubated for 48 h with a doubling dilution series of the test compounds in HMI-9/fetal bovine serum at 37 °C/5% CO2 (23 dilutions starting at 100 µM, except for the pentamidine control (50 µM)), after which resazurin (20 µL of 125 µg mL^−1 resazurin sodium salt solution was added to each well (containing 200 µL of cells and test compound)) was added to each well and the plates incubated for another 24 h. Fluorescence was determined using a FLUOstar Optima (BMG Labtech, Durham, NC) and the results fitted to a sigmoid curve with variable slope using Prism 5.0 or Prism 7.04 (GraphPad, San Diego, CA)."}, "[2]": {"system": "ISMR1: isometamidium-resistant T. brucei cell line", "assay": "microbe, parasite or virus in culture", "type": "cell-based, Trypanosoma brucei brucei", "conditions": "for EC50: Trypanosoma brucei", "method": "as §1"}, "[3]": {"system": "TbAT1-KO: T. brucei cell line lacking the TbAT1(P2) transporter gene", "assay": "microbe, parasite or virus in culture", "type": "cell-based, Trypanosoma brucei brucei", "conditions": "for EC50: Trypanosoma brucei", "method": "as §1"}, "[4]": {"system": "B48: pentamidine, diminazene and melaminophenyl arsenical resistant T. brucei line", "assay": "microbe, parasite or virus in culture", "type": "cell-based, Trypanosoma brucei brucei", "conditions": "for EC50: Trypanosoma brucei"}, "[5]": {"system": "Lister 427WT T. b. brucei", "assay": "Adenosine deaminase susceptibility (drug sensitivity with/without 2 µM deoxycoformycin)", "type": "cell-based, Trypanosoma brucei brucei", "method": "as §1, with “CA). […]” for “CA).”\nAdenosine deaminase susceptibility\nin the presence or absence of 2 µM 2’-deoxycoformycin. […]"}, "[6]": {"assay": "Metabolic stability, mouse liver microsomes (phase I and II)", "method": "(§2) Mouse, rat, and pooled human liver microsomes were purchased from a commercial source (Corning) and stored at -80 °C. NADPH generating system solutions A and B and UGT reaction mix solutions A and B (Corning) were kept at -20°C. The test compound and the reference compounds diclofenac (MW […]\n(§3) microsomal stability assay was carried out based on the BD Biosciences Guidelines for Use (TF000017 Rev1.0) with minor adaptations. Metabolic stability of the compounds was studied through the CYP450 superfamily (phase I metabolism) by fortification with reduced nicotinamide adenine dinucleotide phosphate (NADPH) and through uridine glucuronosyl-transferase (UGT) enzymes (phase II metabolism) by fortification with uridine diphosphate glucuronic acid (UDPGA). For the CYP450 and other NADPH dependent enzymes, both compounds were incubated at 5 µM together with 0.5 mg mL-1 liver microsomes in potassium phosphate buffer in a reaction started by the addition of 1 mM NADPH […]\n(§4) At these time points, 20 µL was withdrawn from the reaction mixture and 80 µL cold acetonitrile (ACN) containing the internal standard tolbutamide, was added to inactivate the enzymes and precipitate the proteins. The mixture was vortexed for 30 s and centrifuged at 4 °C for 5 min at 15,000 rpm. The supernatant was stored at -80°C until analysis. For the UGT enzymes, both compounds were incubated at 5 µM together with 0.5 mg mL-1 liver microsomes in a reaction started by the addition of 2 mM UDPGA cofactor. The corresponding loss of parent compound was determined using liquid chromatography (UPLC) (Waters AquityTM) coupled with tandem quadrupole mass spectrometry (MS²) (Waters XevoTM), equipped with an electrospray ionization (ESI) interface and operated in multiple reaction monitoring (MRM) mode. […]"}, "[7]": {"assay": "Metabolic stability, rat liver microsomes (phase I and II)", "method": "as §2, §3, §4"}, "[8]": {"assay": "Metabolic stability, pooled human liver microsomes (phase I and II)", "method": "as §2, §3, §4"}, "[9]": {"conditions": "source data, read-out: s427 EC50, AVG"}, "[10]": {"conditions": "source data, read-out: ISMR1 EC50, AVG"}, "[11]": {"conditions": "read-out: TbAT1-KO EC50, AVG, source data"}, "[12]": {"conditions": "source data, read-out: B48 EC50, AVG"}, "[13]": {"conditions": "DCF +, single replicate, read-out: EC50"}, "[14]": {"conditions": "DCF -, single replicate, read-out: EC50"}, "[15]": {"conditions": "resistance factor vs Lister 427WT"}}, "note": "“And” between values parts separate entries of the source, which are not always exact repeats. Equal values may be shown once. Read-outs that look alike come from different tables or passages of the source. Marks after values point to notes of the source that are not given here.", "data": [{"smiles": "Nc1ncnc2c1c(-c1ccccn1)cn2[C@@H]1O[C@H](CO)[C@@H](O)[C@H]1O", "note": "[Compound 7]", "values": [{"measurement": "EC50", "setting": "[1]; [9]", "result": 170, "unit": "nM"}, {"measurement": "EC50", "setting": "[2]; [10]", "result": 433, "unit": "nM"}, {"measurement": "EC50", "setting": "[3]; [11]", "result": 404, "unit": "nM"}, {"measurement": "EC50", "setting": "[4]; [12]", "result": 265, "unit": "nM"}]}, {"smiles": "Nc1ncnc2c1ncn2[C@@H]1O[C@H](CO)C[C@H]1O", "note": "[Cordycepin (3)]", "values": [{"measurement": "EC50", "setting": "[5]; [13]", "result": "5.51 nM and 1.22 nM and 4.17 nM"}, {"measurement": "EC50", "setting": "[5]; [14]", "result": "169 nM and 509 nM and 634 nM"}, {"measurement": "EC50", "setting": "[5]; Trypanosoma brucei, DCF +, average of replicates, read-out: EC50 AVG", "result": 3.63, "unit": "nM"}, {"measurement": "EC50", "setting": "[5]; Trypanosoma brucei, DCF +, read-out: EC50 Reported value", "result": "3.6 ± 1", "unit": "nM"}, {"measurement": "EC50", "setting": "[5]; Trypanosoma brucei, DCF -, average of replicates, read-out: EC50 AVG", "result": 437, "unit": "nM"}, {"measurement": "EC50", "setting": "[5]; Trypanosoma brucei, DCF -, read-out: EC50 Reported value", "result": "440 ± 110", "unit": "nM"}]}, {"smiles": "O=C(O)Cc1ccccc1Nc1c(Cl)cccc1Cl", "note": "[Diclo, diclofenac, reference compound]", "values": [{"measurement": "% parent compound remaining", "setting": "[6]; CYP - NADPH, 15 min", "result": "83±14", "unit": "%"}, {"measurement": "% parent compound remaining", "setting": "[6]; CYP - NADPH, 30 min", "result": "67±5.7", "unit": "%"}, {"measurement": "% parent compound remaining", "setting": "[6]; CYP - NADPH, 60 min", "result": "52±0.3", "unit": "%"}, {"measurement": "% parent compound remaining", "setting": "[6]; UGT Enzymes, 15 min", "result": "42±21", "unit": "%"}, {"measurement": "% parent compound remaining", "setting": "[6]; UGT Enzymes, 30 min", "result": "46±10", "unit": "%"}, {"measurement": "% parent compound remaining", "setting": "[6]; UGT Enzymes, 60 min", "result": "34±9", "unit": "%"}, {"measurement": "% parent compound remaining", "setting": "[7]; CYP - NADPH, 15 min", "result": "59±9", "unit": "%"}, {"measurement": "% parent compound remaining", "setting": "[7]; CYP - NADPH, 30 min", "result": "39±2.6", "unit": "%"}, {"measurement": "% parent compound remaining", "setting": "[7]; CYP - NADPH, 60 min", "result": "10±2.9", "unit": "%"}, {"measurement": "% parent compound remaining", "setting": "[7]; UGT Enzymes, 15 min", "result": "28±4.5", "unit": "%"}, {"measurement": "% parent compound remaining", "setting": "[7]; UGT Enzymes, 30 min", "result": "14±1.5", "unit": "%"}, {"measurement": "% parent compound remaining", "setting": "[7]; UGT Enzymes, 60 min", "result": "11±0.9", "unit": "%"}, {"measurement": "% parent compound remaining", "setting": "[8]; CYP - NADPH, 15 min", "result": "35±0.4", "unit": "%"}, {"measurement": "% parent compound remaining", "setting": "[8]; CYP - NADPH, 30 min", "result": "14±0.8", "unit": "%"}, {"measurement": "% parent compound remaining", "setting": "[8]; CYP - NADPH, 60 min", "result": "2±0.4", "unit": "%"}, {"measurement": "% parent compound remaining", "setting": "[8]; UGT Enzymes, 15 min", "result": "17±1.1", "unit": "%"}, {"measurement": "% parent compound remaining", "setting": "[8]; UGT Enzymes, 30 min", "result": "14±0.7", "unit": "%"}, {"measurement": "% parent compound remaining", "setting": "[8]; UGT Enzymes, 60 min", "result": "10±0.1", "unit": "%"}]}, {"smiles": "N=C(N)c1ccc(/N=N/Nc2ccc(C(=N)N)cc2)cc1", "note": "[Diminazene, reference compound]", "values": [{"measurement": "EC50", "setting": "[1]; mean and SEM, n = 3, read-out: Lister 427 EC50", "result": "420 ± 64", "unit": "nM"}, {"measurement": "EC50", "setting": "[1]; [9]", "result": 423, "unit": "nM"}, {"measurement": "EC50", "setting": "[2]; mean and SEM, n = 3, read-out: ISMR1 EC50", "result": "2900 ± 400", "unit": "nM"}, {"measurement": "EC50", "setting": "[2]; [10]", "result": 2920, "unit": "nM"}, {"measurement": "RF (ISMR1)", "setting": "[2]; [15]", "result": "6.9***"}, {"measurement": "EC50", "setting": "[3]; [11]", "result": 4470, "unit": "nM"}, {"measurement": "EC50", "setting": "[3]; read-out: TbAT1-KO EC50, mean and SEM, n = 3", "result": "4500 ± 900", "unit": "nM"}, {"measurement": "RF (TbAT1-KO)", "setting": "[3]; resistance factor: ratio of EC50 of resistant and Lister 427WT", "result": "10.6***"}, {"measurement": "EC50", "setting": "[4]; mean and SEM, n = 3, read-out: B48 EC50", "result": "7200 ± 1600", "unit": "nM"}, {"measurement": "EC50", "setting": "[4]; [12]", "result": 7150, "unit": "nM"}, {"measurement": "RF (B48)", "setting": "[4]; [15]", "result": "16.9***"}]}, {"smiles": "Nc1ncnc2c1c(Br)cn2[C@@H]1O[C@H](CO)C[C@H]1O", "note": "[FH7429-up (10)]", "values": [{"measurement": "EC50", "setting": "[5]; DCF +, average of replicates, read-out: EC50 AVG", "result": 1.9, "unit": "nM"}, {"measurement": "EC50", "setting": "[5]; DCF +, read-out: EC50 Reported value", "result": "1.9 ± 0.2", "unit": "nM"}, {"measurement": "EC50", "setting": "[5]; [13]", "result": "2.01 nM and 2.18 nM and 1.52 nM"}, {"measurement": "EC50", "setting": "[5]; DCF -, average of replicates, read-out: EC50 AVG", "result": 2.02, "unit": "nM"}, {"measurement": "EC50", "setting": "[5]; DCF -, read-out: EC50 Reported value", "result": "2 ± 0.1", "unit": "nM"}, {"measurement": "EC50", "setting": "[5]; [14]", "result": "1.9 nM and 1.86 nM and 2.3 nM"}]}]}
